Molecular target: T1, human CRHR2-alpha (Homo sapiens, UniProt Q13324)
T1 sequence (Q13324 1-411): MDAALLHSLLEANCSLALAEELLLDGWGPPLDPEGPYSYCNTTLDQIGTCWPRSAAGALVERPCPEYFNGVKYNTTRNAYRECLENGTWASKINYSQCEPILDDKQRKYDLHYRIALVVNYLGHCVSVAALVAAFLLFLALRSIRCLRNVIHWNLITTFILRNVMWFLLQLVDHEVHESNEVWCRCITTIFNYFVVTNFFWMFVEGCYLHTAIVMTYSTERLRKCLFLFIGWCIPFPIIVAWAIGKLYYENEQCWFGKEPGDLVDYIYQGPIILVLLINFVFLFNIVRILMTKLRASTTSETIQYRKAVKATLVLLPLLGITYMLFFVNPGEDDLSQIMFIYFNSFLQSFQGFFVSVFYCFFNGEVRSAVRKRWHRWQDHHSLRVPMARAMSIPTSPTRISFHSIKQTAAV
Test: cAMP functional assay for human CRHR2 (LANCE Ultra cAMP, TR-FRET)
Type: cell-based
Settings: CHO-K1 cells expressing human CRHR2-alpha, agonist human urocortin2 at EC80, cAMP; read-out: IC50 against CRHR2
In short: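 Antagonism measured in CHO-K1 cells stably expressing the receptor, serum-starved 7 h then cryopreserved. Thawed cells in HBSS buffer with 0.1% BSA, 0.5 mM IBMX, 5 mM Hepes pH 7.4 were preincubated with compound 30 min at 25° C, then stimulated 30 min with EC80 agonist: urocortin2 for CRHR2, CRF for CRHR1.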

IC50, < 300 nM:
Cn1cc(CCn2c(=O)n(C[C@H]3CC[C@H](NC(=O)c4cc(Cl)cnc4C(F)(F)F)CC3)c3ccccc32)cn1 [Example 303, 5-chloro-N-((1r,4r)-4-((3-(2-(1-methyl-1H-pyrazol-4-yl)ethyl)-2-oxo-2,3-dihydro-1H-benzo[d]imidazol-1-yl)methyl)cyclohexyl)-2-(trifluoromethyl)nicotinamide]
N#Cc1nccnc1-n1c(=O)n(C[C@H]2CC[C@H](NC(=O)c3cc(Cl)cnc3C(F)F)CC2)c2ccccc21 [Example 369, 5-chloro-N-((1r,4r)-4-((3-(3-cyanopyrazin-2-yl)-2-oxo-2,3-dihydro-1H-benzo[d]imidazol-1-yl)methyl)cyclohexyl)-2-(difluoromethyl)nicotinamide]
Cc1ncc(Cl)cc1C(=O)N[C@H]1CC[C@H](Cn2c(=O)n(C3COc4ccccc4C3)c3ccccc32)CC1 (some centres unmarked) [Example 167, 5-chloro-N-((1r,4r)-4-((3-(chroman-3-yl)-2-oxo-2,3-dihydro-1H-benzo[d]imidazol-1-yl)methyl)cyclo-hexyl)-2-methylnicotinamide]
Cc1cc(C)c(-n2c(=O)n(C[C@H]3CC[C@H](NC(=O)c4cc(Cl)cnc4C)CC3)c3ccccc32)cn1 [Example 330, 5-chloro-N-((1r,4r)-4-((3-(4,6-dimethylpyridin-3-yl)-2-oxo-2,3-dihydro-1H-benzo [d]imidazol-1-yl)methyl)cyclohexyl)-2-methylnico-tinamide]
CNc1ccc(-n2c(=O)n(C[C@H]3CC[C@H](NC(=O)c4cc(Cl)cnc4C)CC3)c3ccccc32)cc1 [Example 646, 5-chloro-2-methyl-N-((1r,4r)-4-((3-(4-(methylamino)phenyl)-2-oxo-2,3-dihydro-1H-benzo[d]imidazol-1-yl)methyl)cyclohexyl)nicotinamide]
O=C(N[C@H]1CC[C@H](Cn2c(=O)n(-c3ccc4c(c3)nnn4CCO)c3ccccc32)CC1)c1cc(Cl)cnc1C(F)F [Example 385, 5-chloro-2-(difluoromethyl)-N-((1r,4r)-4-((3-(1-(2-hydroxyethyl)-1H-benzo[d][1,2,3]triazol-5-yl)-2-oxo-2,3-dihydro-1H-benzo[d]imidazol-1-yl)methyl)cyclohexyl)nicotinamide]
Cc1ncc(Cl)cc1C(=O)N[C@H]1CC[C@H](Cn2c(=O)n(-c3ccc4c(N)n[nH]c4c3)c3ccccc32)CC1 [Example 197, N-((1r,4r)-4-((3-(3-amino-1H-indazol-6-yl)-2-oxo-2,3-dihydro-1H-benzo[d]imidazol-1-yl)methyl)cyclohexyl)-5-chloro-2-methylnicotinamide]
Cc1ncc(Cl)cc1C(=O)N[C@H]1CC[C@H](Cn2c(=O)n(-c3cccc4ncncc34)c3ccccc32)CC1 [Example 187, 5-chloro-2-methyl-N-((1r,4r)-4-((2-oxo-3-(quinazolin-5-yl)-2,3-dihydro-1H-benzo[d]imidazol-1-yl)methyl)cyclo-hexyl)nicotinamide]
O=C(N[C@H]1CC[C@H](Cn2c(=O)n(Cc3ccncc3)c3ccccc32)CC1)c1cc(Cl)ccc1C(F)(F)F [Example 281, 5-chloro-N-((1r,4r)-4-((2-oxo-3-(pyridin-4-ylmethyl)-2,3-dihydro-1H-benzo[d]imidazol-1-yl)methyl)cyclohexyl)-2-(trifluoromethyl)benzamide]
Cc1ncc(Cl)cc1C(=O)N[C@H]1CC[C@H](Cn2c(=O)n(-c3cnc4c(c3)nnn4C)c3ccccc32)CC1 [Example 275, 5-chloro-2-methyl-N-((1r,4r)-4-((3-(3-methyl-3H-[1,2,3]triazolo[4,5-b]pyridin-6-yl)-2-oxo-2,3-dihydro-1H-benzo [d]imidazol-1-yl)methyl)cyclohexyl)nicotinamide]
CNC(=O)c1ccc(-n2c(=O)n(C[C@H]3CC[C@H](NC(=O)c4cc(Cl)cnc4C)CC3)c3ccc(OC)cc32)cn1 [Example 258, 5-(3-(((1r,4r)-4-(5-chloro-2-methylnicotinamido)cyclo-hexyl)methyl)-6-methoxy-2-oxo-2,3-dihydro-1H-benzo [d]imidazol-1-yl)-N-methylpicolinamide]
Cc1ncc(Cl)cc1C(=O)N[C@H]1CC[C@H](Cn2c(=O)n(-c3cccc(-c4cnco4)c3)c3ccccc32)CC1 [Example 488, 5-chloro-2-methyl-N-((1r,4r)-4-((3-(3-(oxazol-5-yl)phenyl)-2-oxo-2,3-dihydro-1H-benzo[d]imidazol-1-yl)methyl)cyclo-hexyl)nicotinamide]
COc1ncc(-n2c(=O)n(C[C@H]3CC[C@H](NC(=O)c4cc(Cl)cnc4C)CC3)c3ccccc32)cc1C [Example 120, 5-chloro-N-((1r,4r)-4-((3-(6-methoxy-5-methylpyridin-3-yl)-2-oxo-2,3-dihydro-1H-benzo[d]imidazol-1-yl)methyl)cyclohexyl)-2-methylnicotinamide]
CNC(=O)c1ccc(-n2c(=O)n(C[C@H]3CC[C@H](NC(=O)c4cc(Cl)cnc4C(F)F)CC3)c3ccc(OC)cc32)cn1 [Example 390, 5-(3-(((1r,4r)-4-(5-chloro-2-(difluoromethyl)nicotinamido)cyclohexyl)methyl)-6-me-thoxy-2-oxo-2,3-dihydro-1H-benzo[d]imidazol-1-yl)-N-methylpicolinamide]
COc1ccc(-n2c(=O)n(C[C@H]3CC[C@H](NC(=O)c4cc(Br)cnc4C)CC3)c3ccccc32)cn1 [Example 227, 5-bromo-N-((1r,4r)-4-((3-(6-methoxypyridin-3-yl)-2-oxo-2,3-dihydro-1H-benzo[d]imidazol-1-yl)methyl)cyclo-hexyl)-2-methylnicotinamide]
Cc1ncc(Cl)cc1C(=O)N[C@H]1CC[C@H](Cn2c(=O)n(-c3ccc(N(C)C)nc3)c3ccccc32)CC1 [Example 52, 5-chloro-N-((1r,4r)-4-((3-(6-(dimethylamino)pyridin-3-yl)-2-oxo-2,3-dihydro-1H-benzo[d]imidazol-1-yl)methyl)cyclohexyl)-2-methylnicotinamide]
CC(=O)N1CCc2cc(-n3c(=O)n(C[C@H]4CC[C@H](NC(=O)c5cc(Cl)cnc5C)CC4)c4ccccc43)cnc21 [Example 155, N-((1r,4r)-4-((3-(1-acetyl-2,3-dihydro-1H-pyrrolo[2,3-b]pyridin-5-yl)-2-oxo-2,3-dihydro-1H-benzo[d]imidazol-1-yl)methyl)cyclohexyl)-5-chloro-2-methylnicotinamide]
COc1ccc(-n2c(=O)n(C[C@H]3CC[C@H](NC(=O)c4cc(Cl)cnc4C(F)F)CC3)c3cnccc32)cc1F [Example 724, 5-chloro-2-(difluoromethyl)-N-((1r,4r)-4-((1-(3-fluoro-4-methoxyphenyl)-2-oxo-1H-imidazo[4,5-c]pyridin-3(2H)-yl)methyl)cyclohexyl) nicotinamide]
COc1cc(-n2c(=O)n(C[C@H]3CC[C@H](NC(=O)c4cc(Cl)cnc4C(F)F)CC3)c3cccnc32)ccc1F [Example 399, 5-chloro-2-(difluoromethyl)-N-((1r,4r)-4-((3-(4-fluoro-3-methoxyphenyl)-2-oxo-2,3-dihydro-1H-imidazo[4,5-b]pyridin-1-yl)methyl)cyclo-hexyl)nicotinamide]
O=C(N[C@H]1CC[C@H](Cn2c(=O)n(-c3cc(F)ccc3Cl)c3cnccc32)CC1)c1cc(Cl)cnc1C(F)F [Example 718, 5-chloro-N-((1r,4r)-4-((3-(2-chloro-5-fluorophenyl)-2-oxo-2,3-dihydro-1H-imidazo[4,5-c]pyridin-1-yl)methyl)cyclo-hexyl)-2-(difluoromethyl) nicotinamide]
O=C(N[C@H]1CC[C@H](Cn2c(=O)n(-c3ccncc3Cl)c3ncccc32)CC1)c1cc(Cl)cnc1C(F)F [Example 496, 5-chloro-N-((1r,4r)-4-((3-(3-chloropyridin-4-yl)-2-oxo-2,3-dihydro-1H-imidazo[4,5-b]pyridin-1-yl)methyl)cyclohexyl)-2-(difluoromethyl)nicotinamide]
O=C(N[C@H]1CC[C@H](Cn2c(=O)n(-c3cncc(-n4cccn4)c3)c3ccccc32)CC1)c1cc(Cl)cnc1C(F)F [Example 703, N-((1r,4r)-4-((3-(5-(1H-pyrazol-1-yl)pyridin-3-yl)-2-oxo-2,3-dihydro-1H-benzo [d]imidazol-1-yl)methyl)cyclohexyl)-5-chloro-2-(difluoromethyl)nicotinamide]
CC(C)Nc1ccc(-n2c(=O)n(C[C@H]3CC[C@H](NC(=O)c4cc(Cl)cnc4C(F)F)CC3)c3ccccc32)cn1 [Example 514, 5-chloro-2-(difluoromethyl)-N-((1r,4r)-4-((3-(6-(iso-propylamino)pyridin-3-yl)-2-oxo-2,3-dihydro-1H-benzo [d]imidazol-1-yl)methyl)cyclohexyl)nicotinamide]

Reference: US11802120B2, “Fused cyclic urea derivatives as CRHR2 antagonist” (RaQualia Pharma Inc., priority 2018, dated 2023)
